Data as given in BindingDB's records for doi:10.3109/14756366.2012.719503 (Kinki University, 2013).

Target: Alpha-glucosidase MAL12 (Saccharomyces cerevisiae (strain ATCC 204508 / S288c), UniProt P53341)
Assay: α-glucosidase Inhibitory Activity Assay
Conditions: pH 7; 25 °C
Experimental: α-glucosidase (25 μL, 0.2 U/mL), 25 μL of various concentrations of samples, and 175 μL of 50 mM sodium phosphate buffer (pH 7.0) were mixed at room temperaturefor 10 min. The reaction was started by the addition of 25 μL of 2.5 mM p-nitrophenyl-α-d-glucopyranoside. […] Control sample contained 25 μL DMSO in place of test samples.

Chain of Alpha-glucosidase MAL12 (P53341 whole entry): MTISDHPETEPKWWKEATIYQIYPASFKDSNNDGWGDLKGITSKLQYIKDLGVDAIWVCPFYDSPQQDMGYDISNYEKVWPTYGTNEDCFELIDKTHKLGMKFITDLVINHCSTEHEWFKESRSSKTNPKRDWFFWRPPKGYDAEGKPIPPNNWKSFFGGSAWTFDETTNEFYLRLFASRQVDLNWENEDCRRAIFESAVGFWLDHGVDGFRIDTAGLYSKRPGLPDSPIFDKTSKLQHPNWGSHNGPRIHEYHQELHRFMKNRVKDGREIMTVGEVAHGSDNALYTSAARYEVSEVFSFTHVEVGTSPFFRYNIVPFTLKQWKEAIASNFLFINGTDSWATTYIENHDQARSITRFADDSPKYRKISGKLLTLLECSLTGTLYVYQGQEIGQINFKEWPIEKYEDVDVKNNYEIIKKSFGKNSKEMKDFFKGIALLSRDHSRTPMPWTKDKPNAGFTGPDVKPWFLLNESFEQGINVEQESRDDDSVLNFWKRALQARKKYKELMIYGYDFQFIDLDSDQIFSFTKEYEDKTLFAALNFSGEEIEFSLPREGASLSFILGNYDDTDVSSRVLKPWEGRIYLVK

Row | SMILES | IC50 [µM]
1 | O=C(O)c1ccc(O)cc1 [4-Hydroxybenzoate, III] | > 300
2 | COc1ccc(C(=O)O)cc1OC [3,4-dimethoxybenzoic acid] | > 300
3 | COc1ccc(C(=O)O)cc1 [Anisic acid] | > 300
4 | O=C(O)c1ccc(O)c(O)c1 [Protocatechuic acid (M1)] | > 300
5 | COc1c(O)cc2c(c1O)C1O[C@H](CO)[C@@H](O)[C@H](O)C1OC2=O (stereo not given in full) [Bergenin (1)] | > 300
6 | COc1cc(C(=O)O)ccc1O [4-hydroxy-3-methoxybenzoic acid] | > 300
7 | O=C(O)c1ccccc1 [SAMPL4, O1] | > 300

Results, then the compound that gave them:

Row | IC50 [µM] | SMILES
8 | 187 | COc1cc(C(=O)OC[C@H]2OC3c4c(cc(O)c(OC)c4O)C(=O)OC3[C@@H](O)[C@@H]2O)ccc1O (stereo not given in full) [11-O-vanilloylbergenin (7)]
9 | > 300 | COc1cc(OC)cc(C(=O)OC[C@H]2OC3c4c(cc(O)c(OC)c4O)C(=O)OC3[C@@H](O)[C@@H]2O)c1 (stereo not given in full) [11-O-(3',5'-dimethoxybenzoyl)-bergenin (8)]
10 | 143 | COc1c(O)cc2c(c1O)C1O[C@H](COC(=O)c3ccc(O)cc3)[C@@H](O)[C@H](O)C1OC2=O (stereo not given in full) [11-O-p-hydroxybenzoylbergenin (3)]
11 | 144 | COc1ccc(C(=O)OC[C@H]2OC3c4c(cc(O)c(OC)c4O)C(=O)OC3[C@@H](O)[C@@H]2O)cc1 (stereo not given in full) [11-O-p-methoxybenzoylbergenin (4)]
12 | 24.6 | COc1ccc(C(=O)OC[C@H]2OC3c4c(cc(O)c(OC)c4O)C(=O)OC3[C@@H](O)[C@@H]2O)cc1OC (stereo not given in full) [11-O-(3',4'-dimethoxybenzoyl)-bergenin (6)]
13 | 290 | COc1c(O)cc2c(c1O)C1O[C@H](COC(=O)c3ccc(O)c(O)c3)[C@@H](O)[C@H](O)C1OC2=O (stereo not given in full) [11-O-protocatechuoylbergenin (5)]
14 | > 300 | COc1cc(C(=O)OC[C@H]2OC3c4c(cc(O)c(OC)c4O)C(=O)OC3[C@@H](O)[C@@H]2O)cc(OC)c1O (stereo not given in full) [11-O-syringylbergenin (9)]
15 | 118 | COc1c(O)cc2c(c1O)C1O[C@H](COC(=O)c3ccccc3)[C@@H](O)[C@H](O)C1OC2=O (stereo not given in full) [11-O-benzoylbergenin (2)]
